Test results: patent publication US20240287037A1, “CYCLOALKYL COMPOUNDS AND PHARMACEUTICAL COMPOSITIONS THAT MODULATE IKZF2” (Plexium, Inc., priority 2021, published 2024)
Like-named read-outs stand apart in the source and are kept apart here.

Biological target: human E3 ligase component cereblon (CRBN) (Homo sapiens (Human), UniProt Q96SW2)
Experiment: Cereblon (CRBN) target engagement, NanoBRET TE Intracellular E3 Ligase Assay in transfected HEK-293T cells
Description: HEK-293T cells were harvested ca. 75% confluent with trypsin and plated (500,000 cells/well) in a 6-well tissue culture plate in 2 mL of Dulbecco's Modified Eagle Medium (DMEM)^+10% Fetal Bovine Serum (FBS) and incubated overnight at 37° C.
The NanoLue-CRBN fusion vector (Nluc-CRBN; Promega) contains the coding region of human E3 ligase component cereblon (CRBN) fused to the C-terminus of the NanoLuc luciferase coding region. A mixture of 10 ng Nluc-CRBN and 990 ng DDB1 Expression Vector (Promega) was added to 125 μL Opti-Minimum Essential Medium (Opti-MEM™; Thermo Fisher) along with 2 μL P3000 reagent (Thermo Fisher) in a 1.5 mL epppendorf tube. This solution was added to Lipofectamine 3000 transfection reagent (5 μL; Thermo Fisher) in Opti-MEM (125 μL), mixed well, and incubated for 15 minutes at room temperature. The transfection mixture was added dropwise to cells and incubated overnight at 37° C., 5% CO2. Following transfection, cells were washed once with PBS, and trypsin (250 μL) was added and incubated 30-45 see to dislodge cells. Complete media (2 mL) was added to resuspend cells to form a single cell suspension. Cells were centrifuged at 320×g for 5 min at room temperature, the supernatant was removed, and the cell pellet resuspended in Opti-MEM (3 mL; wash step repeated ×2). After final resuspension in 5 mL Opti-MEM, cells were counted and resuspended at 200,000 cells/mL in Opti-MEM.
Cereblon target engagement was monitored by Bioluminescence Resonance Energy Transfer (BRET) in transfected HEK-293T cells using the NanoBRET TE Intracellular E3 Ligase Assay (Promega). Briefly, 384-well plates (white opaque plates, Corning 3574, low binding surface) were seeded with transfected HEK-293T cells (38 μl/well). 2 μL of 10 μM CRBN tracer (diluted 1:5 in Tracer Dilution Buffer) was added to each well. Plates were centrifuged at 320×g for 1 min at room temperature. […] Plates were shaken for 2 minutes on a microplate shaker to mix compounds. Plates were centrifuged at 320×g for 1 min at room temperature, and subsequently incubated for 2 hours at 37° C.
After incubation, plates were allowed to cool to room temperature for 15 minutes. 20 μL of 3X Complete NanoBRET™ Nano-Glo® Substrate plus Inhibitor Solution (Promega, 1:166 Substrate and 1:500 dilution of Extracellular NanoLuc® Inhibitor diluted in Opti-MEM) were added to each well, Plates were incubated with shaking at room temperature for 3 minutes covered with foil. Plates were read on a CLARIOstar microplate reader (BMG LabTech), measuring at 450 nm (donor emission) and 610 nm (acceptor emission). The IC50 values were determined by regression to best fit four-parameter logistic curves using GraphPad Prism.

[1] = Table 3, 2 hours at 37° C., read-out: CRBN Binding EC50
[2] = second (untitled) table after Table 3, read-out: CRBN Binding EC50

Chain of human E3 ligase component cereblon (CRBN) (Q96SW2 whole entry): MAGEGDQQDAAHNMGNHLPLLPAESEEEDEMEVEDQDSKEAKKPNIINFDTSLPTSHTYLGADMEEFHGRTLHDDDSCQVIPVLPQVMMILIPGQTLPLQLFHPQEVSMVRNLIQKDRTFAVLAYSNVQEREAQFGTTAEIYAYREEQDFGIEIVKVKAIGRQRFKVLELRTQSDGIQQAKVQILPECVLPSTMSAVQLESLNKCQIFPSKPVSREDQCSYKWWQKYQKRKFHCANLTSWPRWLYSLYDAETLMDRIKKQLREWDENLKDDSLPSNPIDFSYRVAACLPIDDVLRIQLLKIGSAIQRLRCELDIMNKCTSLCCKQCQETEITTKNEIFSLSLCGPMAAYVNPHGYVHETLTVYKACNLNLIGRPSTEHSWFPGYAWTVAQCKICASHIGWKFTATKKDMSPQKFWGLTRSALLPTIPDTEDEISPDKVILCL
Chain of human E3 ligase component cereblon (CRBN) (Q16531 whole entry partner): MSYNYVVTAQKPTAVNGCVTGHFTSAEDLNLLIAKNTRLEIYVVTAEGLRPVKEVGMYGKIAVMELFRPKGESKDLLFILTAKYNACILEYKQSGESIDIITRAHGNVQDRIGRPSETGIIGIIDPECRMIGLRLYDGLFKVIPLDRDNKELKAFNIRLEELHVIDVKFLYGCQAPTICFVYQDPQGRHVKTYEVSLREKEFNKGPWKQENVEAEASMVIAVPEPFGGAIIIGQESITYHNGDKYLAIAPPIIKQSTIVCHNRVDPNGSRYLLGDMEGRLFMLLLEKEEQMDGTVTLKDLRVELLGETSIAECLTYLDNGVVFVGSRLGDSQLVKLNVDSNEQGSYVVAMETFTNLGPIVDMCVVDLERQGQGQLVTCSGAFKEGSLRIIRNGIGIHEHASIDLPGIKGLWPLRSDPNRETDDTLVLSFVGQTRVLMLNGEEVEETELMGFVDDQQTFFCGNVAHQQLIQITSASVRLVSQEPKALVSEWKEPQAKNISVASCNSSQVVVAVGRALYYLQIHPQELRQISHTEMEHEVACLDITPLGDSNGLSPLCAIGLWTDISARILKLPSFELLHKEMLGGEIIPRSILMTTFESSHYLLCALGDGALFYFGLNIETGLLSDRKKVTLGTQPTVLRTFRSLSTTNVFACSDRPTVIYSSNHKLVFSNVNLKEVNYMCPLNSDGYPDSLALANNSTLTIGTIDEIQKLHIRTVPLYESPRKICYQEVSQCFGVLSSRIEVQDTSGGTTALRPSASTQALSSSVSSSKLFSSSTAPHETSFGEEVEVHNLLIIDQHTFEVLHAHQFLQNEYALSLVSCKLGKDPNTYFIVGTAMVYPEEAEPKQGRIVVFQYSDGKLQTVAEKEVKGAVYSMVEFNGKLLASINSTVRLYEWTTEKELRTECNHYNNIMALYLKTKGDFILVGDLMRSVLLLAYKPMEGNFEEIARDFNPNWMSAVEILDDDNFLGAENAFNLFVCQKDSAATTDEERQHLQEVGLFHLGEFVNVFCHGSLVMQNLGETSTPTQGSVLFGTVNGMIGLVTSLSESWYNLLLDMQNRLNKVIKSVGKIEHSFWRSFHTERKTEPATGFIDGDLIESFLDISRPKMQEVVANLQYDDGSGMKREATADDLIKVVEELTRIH

Compound | EC50 [1] [nM] | EC50 [2] [nM]
O=C1CCC(N2Cc3c(ccc(O[C@H]4CCCC[C@@H]4N4CC(C5CC5)C4)c3F)C2=O)C(=O)N1 (stereo partly drawn) [Compound 24, 3-(5-(((1S,2S)-2-(3-cyclopropylazetidin-1-yl)cyclohexyl)oxy)-4-fluoro-1-oxoisoindolin-2-yl)piperidine-2,6-dione] | 49 | 49
O=C1CCC(N2Cc3cc(O[C@H]4CCCC[C@@H]4N4CC(C5CCC(OC(F)F)CC5)C4)ccc3C2=O)C(=O)N1 (stereo partly drawn) [Compound 21, 3-(5-(((1S,2S)-2-(3-(4-(difluoromethoxy)cyclohexyl)azetidin-1-yl)cyclohexyl)oxy)-1-oxoisoindolin-2-yl)piperidine-2,6-dione] | 1 | 1
O=C1CCC(N2Cc3cc(O[C@H]4CCCC[C@@H]4N4CC(C5CC5)C4)c(F)cc3C2=O)C(=O)N1 (stereo partly drawn) [Compound 26, 3-(5-(((1S,2S)-2-(3-cyclopropylazetidin-1-yl)cyclohexyl)oxy)-6-fluoro-1-oxoisoindolin-2-yl)piperidine-2,6-dione] | 16 | 16
O=C1CCC(N2Cc3cc(O[C@H]4CCCC[C@@H]4N4CC(C5CCC5)C4)c(F)cc3C2=O)C(=O)N1 (stereo partly drawn) [Compound 27, 3-(5-(((1S,2S)-2-(3-cyclobutylazetidin-1-yl)cyclohexyl)oxy)-6-fluoro-1-oxoisoindolin-2-yl)piperidine-2,6-dione] | 18 | 18
O=C1CCC(N2Cc3cc(O[C@H]4CCCC[C@@H]4N4CC(C5CCCCC5)C4)ccc3C2=O)C(=O)N1 (stereo partly drawn) [Compound 1, 3-(5-(((1S,2S)-2-(3-cyclohexylazetidin-1-yl)cyclohexyl)oxy)-1-oxoisoindolin-2-yl)piperidine-2,6-dione] | 3 | 3
O=C1CCC(N2Cc3cc(O[C@H]4CCCC[C@@H]4N4CC(C5CC5)C4)ccc3C2=O)C(=O)N1 (stereo partly drawn) [Compound 3, 3-(5-(((1S,2S)-2-(3-cyclopropylazetidin-1-yl)cyclohexyl)oxy)-1-oxoisoindolin-2-yl)piperidine-2,6-dione] | 9 | 9
O=C1CCC(N2Cc3cc(O[C@H]4CCCC[C@@H]4N4CC(C5CCCC(F)(F)C5)C4)ccc3C2=O)C(=O)N1 (stereo partly drawn) [Compound 20, 3-(5-(((1S,2S)-2-(3-(3,3-difluorocyclohexyl)azetidin-1-yl)cyclohexyl)oxy)-1-oxoisoindolin-2-yl)piperidine-2,6-dione] | 4 | 4
O=C1CCC(N2Cc3cc(O[C@H]4CCC[C@@H]4N4CC(C5CCC(F)(F)CC5)C4)ccc3C2=O)C(=O)N1 (stereo partly drawn) [Compound 13, 3-(5-(((1S,2S)-2-(3-(4,4-difluorocyclohexyl)azetidin-1-yl)cyclopentyl)oxy)-1-oxoisoindolin-2-yl)piperidine-2,6-dione] | 5 | 5
O=C1CCC(N2Cc3cc(O[C@H]4CCC[C@@H]4N4CC(C5CC5)C4)ccc3C2=O)C(=O)N1 (stereo partly drawn) [Compound 22, 3-(5-(((1S,2S)-2-(3-cyclopropylazetidin-1-yl)cyclopentyl)oxy)-1-oxoisoindolin-2-yl)piperidine-2,6-dione] | 22 | 22
O=C1CCC(N2Cc3cc(O[C@H]4CCCC[C@@H]4N4CC(C5CC(F)(F)C5)C4)ccc3C2=O)C(=O)N1 (stereo partly drawn) [Compound 18, 3-(5-(((1S,2S)-2-(3-(3,3-difluorocyclobutyl)azetidin-1-yl)cyclohexyl)oxy)-1-oxoisoindolin-2-yl)piperidine-2,6-dione] | 12 | 12
CC(C)OC1CCC(C2CN([C@H]3CCCC[C@@H]3Oc3ccc4c(c3)CN(C3CCC(=O)NC3=O)C4=O)C2)CC1 (stereo partly drawn) [Compound 17, 3-(5-(((1S,2S)-2-(3-((trans)-4-isopropoxycyclohexyl)azetidin-1-yl)cyclohexyl)oxy)-1-oxoisoindolin-2-yl)piperidine-2,6-dione] | 1 | 1
O=C1CCC(N2Cc3cc(O[C@H]4CCCC[C@@H]4N4CC(C5CCCC5)C4)ccc3C2=O)C(=O)N1 (stereo partly drawn) [Compound 6, 3-(5-(((1S,2S)-2-(3-cyclopentylazetidin-1-yl)cyclohexyl)oxy)-1-oxoisoindolin-2-yl)piperidine-2,6-dione] | 5 | 5
CCOC1CCC(C2CN([C@H]3CCCC[C@@H]3Oc3ccc4c(c3)CN(C3CCC(=O)NC3=O)C4=O)C2)CC1 (stereo partly drawn) [Compound 19, 3-(5-(((1S,2S)-2-(3-(4-ethoxycyclohexyl)azetidin-1-yl)cyclohexyl)oxy)-1-oxoisoindolin-2-yl)piperidine-2,6-dione] | 1 | 1
CC(C)OC1CCC(C2CN([C@H]3CCCC[C@@H]3Oc3ccc4c(c3)CN(C3CCC(=O)NC3=O)C4=O)C2)CC1 (stereo partly drawn) [Compound 16, 3-(5-(((1S,2S)-2-(3-((cis)-4-isopropoxycyclohexyl)azetidin-1-yl)cyclohexyl)oxy)-1-oxoisoindolin-2-yl)piperidine-2,6-dione] | 2 | 2
O=C1CCC(N2Cc3cc(O[C@H]4CCCC[C@@H]4N4CC(C5CCC5)C4)ccc3C2=O)C(=O)N1 (stereo partly drawn) [Compound 5, 3-(5-(((1S,2S)-2-(3-cyclobutylazetidin-1-yl)cyclohexyl)oxy)-1-oxoisoindolin-2-yl)piperidine-2,6-dione] | 9 | 9
O=C1CCC(N2Cc3c(ccc(O[C@H]4CCCC[C@@H]4N4CC(C5CCC5)C4)c3F)C2=O)C(=O)N1 (stereo partly drawn) [Compound 25, 3-(5-(((1S,2S)-2-(3-cyclobutylazetidin-1-yl)cyclohexyl)oxy)-4-fluoro-1-oxoisoindolin-2-yl)piperidine-2,6-dione] | 28 | 28
O=C1CCC(N2Cc3cc(O[C@H]4CCCC[C@@H]4N4CC(C5CCC(F)(F)CC5)C4)ccc3C2=O)C(=O)N1 (stereo partly drawn) [Compound 2, 3-(5-(((1S,2S)-2-(3-(4,4-difluorocyclohexyl)azetidin-1-yl)cyclohexyl)oxy)-1-oxoisoindolin-2-yl)piperidine-2,6-dione] | 2 | 2
